Paper PMC13242511, “Disrupting Notch signalling by a small molecule inhibiting dihydroorotate dehydrogenase activity” (Scientific Reports, 2026)

Key:
Type in all cases: cell-based
γ-secretase complex = γ-secretase complex (Homo sapiens, UniProt P49768); assay: APP-C99 counter assay (GSI reporter assay); conditions: for 3p-DR in % of DMSO counter: APP-C99 counter assay
Method in brief: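 γ-secretase activity reported via APP cleavage driving firefly luciferase, normalized to renilla. After 24 h transfection then 24 h compound exposure, signals were read (0.1 s integration). Triplicate dose–responses fitted by variable-slope four-parameter model for IC50; area under curve also derived.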

Notch signalling [1] = assay: Notch reporter assay (12xCSL firefly luciferase / renilla luciferase, HEK293T Notch1ΔE reporter cell line clone #A1-11); parameters: Confirmation screen: unit not given here; conditions: for inhibitor ratio in % of DMSO in 3 point DR: 3-point DR confirmation screen, Notch reporter assay
Method in brief: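 Compounds at two-fold concentration in 10 µl medium were brought to one-fold by adding 10 µl holding 4000 Notch reporter cells (clone #A1-11) per well of a 384-well plate. After 24 h, Promega dual-GLO firefly and renilla luciferase were read on a SpectraMaxi3. Dose-response curves were fitted with a log(inhibitor) vs. response variable-slope model.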

Notch signalling [2] = assay: as above; conditions: 24 h, unit from Fig. 2 legend
[3] = 10 µM, sheet conf vs counter 10 µM
[4] = 25 µM, sheet "conf vs counter 25 µM", same values given as % of DMSO in sheet "3p-DR in % of DMSO counter"
[5] = 10 µM, sheet conf vs counter 10 µM, same values as 3-point DR confirmation screen
[6] = 25 µM, Notch reporter 3-point dose-confirmation assay, sheet "conf vs counter 25 µM"

Row | SMILES | 3p-DR in % of DMSO counter (γ-secretase complex; 10µM) | Counter screen (Hek APP-C99) (γ-secretase complex; [3]) | 3p-DR in % of DMSO counter (γ-secretase complex; 25µM) | Counter screen (Hek APP-C99) (γ-secretase complex; [4]) | 3p-DR in % of DMSO counter (γ-secretase complex; 1,25µM) | inhibitor ratio in % of DMSO in 3 point DR (Notch signalling [1]; 10µM) | Confirmation screen (Notch signalling [1]; [5]) | inhibitor ratio in % of DMSO in 3 point DR (Notch signalling [1]; 25µM) | Confirmation screen (Notch signalling [1]; [6]) | inhibitor ratio in % of DMSO in 3 point DR (Notch signalling [1]; 1,25µM) | Primary screen at 10 µM (Notch reporter signal) (Notch signalling [2])
1 | Nc1ccc(Sc2nccnc2N2CCCC2)cc1 [CBK089520] | 34.9 % of DMSO | 34.9 | 11.6 % of DMSO | 11.6 | 115.4 % of DMSO | 42.1 % of DMSO | 42.1 | 27.1 % of DMSO | 27.1 | 103.0 % of DMSO | 43.1 % of DMSO
2 | O=C(NC(Nc1cccc(C(F)(F)F)c1)C(=O)c1ccccc1)c1ccc(Cl)cc1 (stereo not drawn) [CBK263585] | 79.4 % of DMSO | 79.4 | 84.5 % of DMSO | 84.5 | 97.7 % of DMSO | 59.9 % of DMSO | 59.9 | 46.6 % of DMSO | 46.6 | 104.0 % of DMSO | 61.4 % of DMSO
3 | COc1cccc(OCC2CCCN(C(=O)CCc3cnn(C)c3)C2)c1 (stereo not drawn) [CBK306931] | 59.0 % of DMSO | 59.0 | 46.1 % of DMSO | 46.1 | 61.2 % of DMSO | 57.0 % of DMSO | 57.0 | 34.9 % of DMSO | 34.9 | 63.9 % of DMSO | 46.7 % of DMSO
4 | c1ccc2oc(CN3Cc4nc[nH]c4C[C@H]3c3nc(-c4ccc5c(c4)OCO5)no3)cc2c1 [CBK288998] | 93.1 % of DMSO | 93.1 | 78.1 % of DMSO | 78.1 | 112.2 % of DMSO | 72.8 % of DMSO | 72.8 | 66.3 % of DMSO | 66.3 | 89.6 % of DMSO | 68.4 % of DMSO
5 | FC(F)(F)CCN1CCC2(CC1)NCCc1c2[nH]c2ccc(Cl)cc12 [CBK039331] | 111.0 % of DMSO | 111.0 | 121.8 % of DMSO | 121.7 | 81.3 % of DMSO | 79.3 % of DMSO | 79.3 | 73.3 % of DMSO | 73.3 | 98.4 % of DMSO | 64.3 % of DMSO
6 | O=C(O)c1c2c(nc3ccccc13)C(=Cc1ccc3c(c1)OCCO3)CC2 [CBK297479] | 16.4 % of DMSO | 16.4 | 13.7 % of DMSO | 13.7 | 29.7 % of DMSO | 15.2 % of DMSO | 15.2 | 7.0 % of DMSO | 7.0 | 22.8 % of DMSO | 18.5 % of DMSO
7 | COc1ccc2cc(C(=O)N3CCC(c4ccncc4)CC3)[nH]c2c1 [CBK283799] | 49.5 % of DMSO | 49.5 | 70.8 % of DMSO | 70.8 | 72.9 % of DMSO | 56.5 % of DMSO | 56.5 | 73.6 % of DMSO | 73.6 | 82.5 % of DMSO | 60.5 % of DMSO
8 | C[C@@H]1C(=O)O[C@H]2[C@H]1CC[C@@]1(C)Cc3sc(NC(=O)CN(C)C)nc3[C@@H](C)[C@H]21 [CBK289431] | 58.4 % of DMSO | 58.4 | 61.0 % of DMSO | 61.0 | 71.4 % of DMSO | 39.6 % of DMSO | 39.6 | 35.0 % of DMSO | 35.0 | 40.7 % of DMSO | 41.2 % of DMSO
9 | COc1cc(Nc2cc(-c3ccccc3N(C)C)ncn2)cc(OC)c1OC [CBK090702] | 148.1 % of DMSO | 148.1 | 225.5 % of DMSO | 225.5 | 124.5 % of DMSO | 85.7 % of DMSO | 85.7 | 55.7 % of DMSO | 55.7 | 97.2 % of DMSO | 68.4 % of DMSO
10 | Cc1ccc(NC(=O)c2cnc(SCc3ccc(F)cc3)n(C)c2=O)cc1C [CBK287674] | 109.0 % of DMSO | 108.9 | 82.2 % of DMSO | 82.2 | 116.8 % of DMSO | 73.8 % of DMSO | 73.8 | 47.2 % of DMSO | 47.2 | 99.3 % of DMSO | 65.6 % of DMSO
11 | CCCC(=O)c1ccc(S(=O)(=O)N2CCN(Cc3csc(-c4ccccc4)n3)CC2)cc1 [CBK063161] | 124.1 % of DMSO | 124.1 | 120.8 % of DMSO | 120.8 | 122.5 % of DMSO | 67.2 % of DMSO | 67.2 | 76.4 % of DMSO | 76.4 | 102.6 % of DMSO | 68.2 % of DMSO
12 | O=C(Nc1ccc(O)c(-c2nc3ccccc3o2)c1)c1ccc(-c2ccc([N+](=O)[O-])cc2)o1 [CBK263439] | 127.0 % of DMSO | 127.0 | 166.0 % of DMSO | 166.0 | 130.0 % of DMSO | 110.7 % of DMSO | 110.7 | 101.9 % of DMSO | 101.9 | 103.9 % of DMSO | 63.7 % of DMSO
